{"source": "patent US6642224B1", "about": "“Diazepan derivatives or salts thereof” (Yamanouchi Pharmaceutical Co., Ltd., priority 2000, dated 2003)", "key": {"[1]": {"target": "T1, human factor Xa (Homo sapiens, UniProt P00742)", "T1 construct": "purchased Enzyme Research Labs", "T1 sequence (P00742 235-488 limits assumed)": "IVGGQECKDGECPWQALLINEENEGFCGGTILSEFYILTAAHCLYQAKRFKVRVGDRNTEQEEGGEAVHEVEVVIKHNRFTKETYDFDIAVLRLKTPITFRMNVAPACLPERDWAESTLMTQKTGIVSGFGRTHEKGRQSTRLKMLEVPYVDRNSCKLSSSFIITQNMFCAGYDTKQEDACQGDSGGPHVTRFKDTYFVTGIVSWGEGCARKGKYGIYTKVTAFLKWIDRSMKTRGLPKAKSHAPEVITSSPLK", "T1 sequence (P00742 41-179 partner limits assumed)": "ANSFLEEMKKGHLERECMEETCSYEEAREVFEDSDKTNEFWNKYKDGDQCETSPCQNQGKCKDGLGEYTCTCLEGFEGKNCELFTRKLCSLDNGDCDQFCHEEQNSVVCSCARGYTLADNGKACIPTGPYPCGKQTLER", "assay": "Test on measurement of coagulation time by human activated blood coagulation factor X", "format": "biochemical", "settings": "human blood plasma; concentration by which the coagulation time is prolonged 2-fold", "description": "1) Test on Measurement of Coagulation Time by Human Activated Blood Coagulation Factor X\nTo 90 μl of human blood plasma were added 10 μl of a drug or a physiological saline and 50 μl of human factor Xa (Enzyme Research Labs), incubation was carried out at 37° C. for 3 minutes, 100 μl of 20 mM CaCl2 previously warmed at 37° C. were added and the time until coagulation was measured by a coagulo-meter (KC10 of Amelung). With regard to the human blood plasma, each 45 ml of blood were collected from vein of elbow of six healthy persons using a syringe in which 5 ml of 3.8% sodium citrate were contained and centrifuged at 4° C. for 15 minutes at 3,000 rpm and the separated blood plasma was pooled and frozen, then thawed before use. With regard to the human factor Xa, the concentration by which the coagulation time when a physiological saline (control) was added was about 30 to 40 seconds was selected. A CT2 value (concentration by which the coagulation time is prolonged to an extent of 2-fold) was determined by plotting the drug concentrations and relative value (fold) of the coagulation time to the control, followed by subjecting to linear regression."}, "[2]": {"target": "T2, bovine thrombin (Bos taurus, UniProt P00735)", "T2 construct": "500 units of Thrombin (derived from bovine; Mochida Pharmaceutical); purchased Mochida Pharmaceutical", "assay": "Test on measurement of coagulation time by bovine thrombin", "format": "biochemical", "settings": "human blood plasma; concentration by which the coagulation time is prolonged 2-fold", "description": "2) Test on Measurement of Coagulation Time by Bovine Thrombin\nTo 50 μl of human blood plasma was added 50 μl of a drug or a physiological saline, incubation was carried out at 37° C. for 3 minutes, 50 μl of thrombin (500 units of Thrombin (derived from bovine; Mochida Pharmaceutical) previously warmed at 37° C. was added and the time until coagulation was measured by a coagulo-meter (KC10 of Amelung). With regard to the human blood plasma, each 45 ml of blood was collected from vein of elbow of six healthy persons using a syringe in which 5 ml of 3.8% sodium citrate was contained and centrifuged at 4° C. for 15 minutes at 3,000 rpm and the separated blood plasma was pooled and frozen, then thawed before use. With regard to the thrombin, the concentration by which the coagulation time when a physiological saline (control) was added was about 20 seconds was selected. A CT2 value (concentration by which the coagulation time is prolonged to an extent of 2-fold) was determined by plotting the drug concentrations and relative value (fold) of the coagulation time to the control, followed by subjecting to linear regression."}, "[3]": {"assay": "Test on ex vivo measurement of coagulation time in mice (oral administration)", "settings": "male ICR mouse, po 100 mg/kg, as compared with control (plasma without administration of a drug)", "description": "4) Test on ex vivo Measurement of Coagulation Time in Mice (Oral Administration)\nUsing the resulting blood plasma, extrinsic coagulation time (PT) and intrinsic coagulation time (APTT) were measured in accordance with the following methods a) and b).\n(§1) a) Extrinsic Coagulation Time (PT)\n(§2) Ortho Brain Thromboplastin (54 mg/vial; a freeze-dried preparation; Ortho-Clinical Diagnostics) was dissolved in 2.5 ml of Milli-Q water and preliminarily warmed at 37° C. The above-separated blood plasma (50 μl) was warmed at 37° C. for 1 minute, 50 μl of the above-mentioned thromboplastin solution was added and the coagulation time was measured. Amelung KC10A was used for the measurement of the coagulation time.\n(§3) b) Intrinsic Coagulation Time (APTT)\n(§4) To 50 μl of the above blood plasma was added 50 μl of Hemoliance Thrombosil I (DIA-IATRON), the mixture was warmed at 37° C. for 3 minutes, 50 μl of a 20 mM CaCl2 solution previously warmed at 37° C. were added and the coagulation time was measured. KC10A manufactured by Amelung was used for the measurement of the coagulation time.\nDose dependency of and time-course changes in the anticoagulation action were also examined by changing the administration dose or the blood collection time."}, "[4]": {"assay": "Test on ex vivo measurement of coagulation time in cynomolgus monkeys (oral administration)", "settings": "male cynomolgus monkeys, po 10 mg/kg, as compared with control (plasma without administration of a drug)", "description": "as §1, §2, §3, §4\n5) Test on ex vivo Measurement of Coagulation Time in Cynomolgus Monkeys (Oral Administration) […]"}}}
{"smiles": "COc1ccc(C(=O)Nc2ccc(O)cc2NC(=O)c2ccc(N(C)C)cc2)cc1", "note": "[Control 2, reference compound]", "values": [{"measurement": "Test on measurement of coagulation time by human activated blood coagulation factor X (CT2)", "setting": "[1]", "value": 11.3, "unit": "µM"}]}
{"smiles": "CN1CCCN(c2ccc(C(=O)Nc3c(O)cccc3C(=O)Nc3ccc(F)cc3)cc2)CC1.Cl", "note": "[Example 11]", "values": [{"measurement": "Test on measurement of coagulation time by bovine thrombin (CT2)", "setting": "[2]", "value": ">100", "unit": "µM"}, {"measurement": "Test on measurement of coagulation time by human activated blood coagulation factor X (CT2)", "setting": "[1]", "value": 1.33, "unit": "µM"}]}
{"smiles": "CN1CCCN(c2ccc(C(=O)Nc3cc(C(=O)O)ccc3CCc3cccc(C(=N)N)c3)cc2)CC1.Cl", "note": "[Example 5]", "values": [{"measurement": "Test on measurement of coagulation time by bovine thrombin (CT2)", "setting": "[2]", "value": ">100", "unit": "µM"}, {"measurement": "Test on measurement of coagulation time by human activated blood coagulation factor X (CT2)", "setting": "[1]", "value": 0.10, "unit": "µM"}]}
{"smiles": "COc1ccc(C(=O)Nc2cccc(OCCO)c2NC(=O)c2ccc(N3CCCN(C)CC3)cc2)cc1.Cl", "note": "[Example 39, 3-(2-hydroxyethoxy)-N^1-(4-methoxybenzoyl)-N^2-[4-(4-methyl-1,4-diazepan-1-yl)benzoyl]-1,2-phenylenediamine hydrochloride]", "values": [{"measurement": "Test on measurement of coagulation time by bovine thrombin (CT2)", "setting": "[2]", "value": ">100", "unit": "µM"}, {"measurement": "Test on measurement of coagulation time by human activated blood coagulation factor X (CT2)", "setting": "[1]", "value": 1.53, "unit": "µM"}]}
{"smiles": "CN1CCCN(c2ccc(C(=O)Nc3cc(C(=O)O)ccc3COc3cccc(C(=N)N)c3)cc2)CC1.Cl", "note": "[Example 3]", "values": [{"measurement": "prolongation of extrinsic coagulation time (PT)", "setting": "[3]", "value": "twice or more"}, {"measurement": "prolongation of intrinsic coagulation time (APTT)", "setting": "[3]", "value": "twice or more"}, {"measurement": "prolongation of extrinsic coagulation time (PT)", "setting": "[4]", "value": "twice or more"}, {"measurement": "prolongation of intrinsic coagulation time (APTT)", "setting": "[4]", "value": "twice or more"}]}
{"smiles": "COc1ccc(C(=O)Nc2ccccc2NC(=O)c2ccc(C3CCNCC3)cc2)cc1", "note": "[Control 1, reference compound]", "values": [{"measurement": "Test on measurement of coagulation time by bovine thrombin (CT2)", "setting": "[2]", "value": ">100", "unit": "µM"}, {"measurement": "Test on measurement of coagulation time by human activated blood coagulation factor X (CT2)", "setting": "[1]", "value": 17.0, "unit": "µM"}]}
{"smiles": "COc1ccc(C(=O)Nc2cccc(O)c2NC(=O)c2ccc(N3CCCN(c4ccncc4)CC3)cc2)cc1.Cl", "note": "[Example 32]", "values": [{"measurement": "Test on measurement of coagulation time by bovine thrombin (CT2)", "setting": "[2]", "value": ">100", "unit": "µM"}, {"measurement": "Test on measurement of coagulation time by human activated blood coagulation factor X (CT2)", "setting": "[1]", "value": 1.41, "unit": "µM"}]}
{"smiles": "COc1ccc(NC(=O)c2cccc(O)c2NC(=O)c2ccc(N3CCCN(C)CC3)cc2)cc1.Cl", "note": "[Example 9, 3-hydroxy-4′-methoxy-2-{[4-(4-methyl-1,4-diazapan-1-yl)benzoyl]amino}benzanilide hydrochloride]", "values": [{"measurement": "Test on measurement of coagulation time by bovine thrombin (CT2)", "setting": "[2]", "value": ">100", "unit": "µM"}, {"measurement": "Test on measurement of coagulation time by human activated blood coagulation factor X (CT2)", "setting": "[1]", "value": 1.71, "unit": "µM"}]}
